pIC50: −log10 of the molar value. Counter-ions that a name gives are not always drawn.
Tests used:
human V2 receptor = human V2 receptor (Homo sapiens, UniProt P30518); experiment: V2 functional assay, cAMP accumulation in transfected HEK-293 cells; assay type: cell-based; parameters: expressed in transfected cells; host or cells: HEK-293; conditions: for pIC50: AVP 1 nM, read-out: Cell-Based Functional activity V2 IC50
Description: (§1) V1a, V1b or V2 Functional Assay
(§2) HEK-293 cells were grown in DMEM media supplemented with 10% FBS and glutamine (Gibco BRL, Grand Island, N.Y.). Once transfected the cells were passed biweekly by trypsinization and seeded into 96 well plates at 33,000 cells per well. HEK-293 were transfected with human V1a, V1b or V2 DNA using DMRIE-C reagent from Life Technologies, Inc., Grand Island, N.Y. Cells were tested for their responsiveness to vasopressin 48 hours after transfection. Stable lines were generated by selecting cells grown in culture media containing geneticin (500 μg/ml, Life Technologies).
The accumulation of cAMP was measured in transfected HEK-293 expressing the human V2 receptor. The cells were cultured 4-7 days in 96-well plates. On the day of assay, cells were washed twice in assay media (DMEM/F12 containing 0.1% BSA). The cells were treated with the test compound for 5 minutes and then given AVP (1 nM) in assay media containing 1 mM isobutylmethylxanthine. After 5 minutes, 0.5 N HCl was added to disrupt the cells and solubilize cAMP. The cAMP content of 20 μl of the cell lysate in each well was measured using cAMP Flashplates (NEN Life Sciences). Data are expressed as pmol cAMP/well. While the assay is optimized to detect and quantitate antagonistic activity, agonistic activity would also be apparent at the higher concentrations of test compounds.
(§3) The data from the cAMP accumulation and the calcium mobilization assays are expressed as IC50 values as determined from dose response curves.

human V1b receptor = molecular target: T1, human V1b receptor (Homo sapiens, UniProt P47901); experiment: V1b functional assay, intracellular calcium mobilization in transfected HEK-293 cells (FLIPR); assay type: cell-based; parameters: expressed in transfected cells; host or cells: HEK-293; conditions: for pIC50: challenge 0.5 nM AVP, read-out: Cell-Based Functional activity V1b IC50
T1 sequence (P47901 1-424): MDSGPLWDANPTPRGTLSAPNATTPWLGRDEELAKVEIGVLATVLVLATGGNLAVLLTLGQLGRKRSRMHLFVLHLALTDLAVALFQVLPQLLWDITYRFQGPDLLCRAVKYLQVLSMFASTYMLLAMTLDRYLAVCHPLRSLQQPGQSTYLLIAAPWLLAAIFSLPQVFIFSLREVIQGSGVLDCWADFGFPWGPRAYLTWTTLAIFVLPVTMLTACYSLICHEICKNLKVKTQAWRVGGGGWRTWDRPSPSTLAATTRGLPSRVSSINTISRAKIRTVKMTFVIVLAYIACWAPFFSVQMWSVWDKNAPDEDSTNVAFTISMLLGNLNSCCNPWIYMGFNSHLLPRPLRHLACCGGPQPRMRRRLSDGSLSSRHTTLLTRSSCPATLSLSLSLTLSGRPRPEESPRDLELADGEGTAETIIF
Description: as §1, §2
Intracellular calcium mobilization was measured in HEK-293 cells transfected to express either human V1a, oxytocin or V1b receptors. Cells were plated into black 96-well Packard Clear-View plates 4 to 7 days prior to use. The cells were loaded with fluo-3 AM (Molecular Probes, Inc., Eugene, Oreg.) in buffer (25 mM Hepes, 125 mM NaCl, 1 gm/l glucose, 0.1% BSA, 5 mM KCl, 0.5 mM CaCl2, 0.5 mM MgCl2, pH 7.45) containing Pluronic (Molecular Probes) Cells were incubated with 5 μM fluo-3 AM for 1 hour shielded from light at room temperature. Intracellular fluorescence was measured using FLIPR (fluorometric imaging plate reader; Molecular Devices, Inc., Sunnyvale, Calif.). The FLIPR protocol called for images to be collected at one second intervals with 50 μl of the test compound added after the initial 10 images. An additional 70 images were then taken to detect any compound agonistic activity. FLIPR then added 50 μl of agonist peptide and collected a final 40 images for quantitating compound antagonistic activity. V1a- and V1b-expressing HEK cells were challenged with 1 nM and 0.5 nM AVP, respectively. Oxytocin-expressing HEK cells were challenged with 0.5 nM oxytocin (Peninsula Labs).
as §3

NPY2 receptors = molecular target: T2, NPY2 receptors (Homo sapiens, UniProt P49146); experiment: Neuropeptide Y receptor binding assay (125I-PYY, KAN-TS cell membranes); conditions: 10 μM compound; for inhibition at 10 µM: read-out: NPY-2@10, % Inh
T2 construct: Cell Membranes from KAN-TS cells having NPY2 receptors; endogenous in cells; host or cells: KAN-TS cells (membranes)
T2 sequence (P49146 1-381): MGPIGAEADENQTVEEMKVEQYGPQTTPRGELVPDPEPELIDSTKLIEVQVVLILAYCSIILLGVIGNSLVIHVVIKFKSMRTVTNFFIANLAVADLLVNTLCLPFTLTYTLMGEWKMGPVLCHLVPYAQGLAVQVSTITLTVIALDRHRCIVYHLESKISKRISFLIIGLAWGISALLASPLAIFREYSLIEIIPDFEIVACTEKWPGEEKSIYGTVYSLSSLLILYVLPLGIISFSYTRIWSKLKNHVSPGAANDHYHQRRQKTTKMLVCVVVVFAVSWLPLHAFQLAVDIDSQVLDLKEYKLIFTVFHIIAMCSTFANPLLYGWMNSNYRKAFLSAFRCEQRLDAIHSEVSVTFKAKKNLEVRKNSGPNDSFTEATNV
Procedure, shortened: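 Membranes from KAN-TS cells competed with 125I-PYY in binding buffer containing BSA, test compound at 10 μM final, 1 hr at room temperature. Nonspecific binding defined with 1 μM PYY final. Tubes centrifuged, washed with PBS and bound radioactivity gamma-counted.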

| Molecule | pIC50 (human V2 receptor) | pIC50 (human V1b receptor) | inhibition at 10 µM (NPY2 receptors) | Cell-Based Functional activity V2 % Inh. @ 30 (human V2 receptor; 30 μM compound) | NPY-2@10, % Inh (NPY2 receptors) | inhibition at 10 µM (human V2 receptor; HEK293, 10 μM compound, read-out: Cell-Based Functional activity V2 % Inh. @ 10) | inhibition at 30 µM (human V1b receptor; HEK293, 30 μM compound, read-out: Cell-Based Functional activity V1b % Inh. @ 30) | inhibition at 30 µM (human V2 receptor; HEK293, 30 μM compound, read-out: Cell-Based Functional activity V2 % Inh. @ 30) |
| --- | --- | --- | --- | --- | --- | --- | --- | --- |
| NCCCn1c(=O)n(C2CCN(C(=S)NC(c3ccccc3)c3ccccc3)CC2)c2ccccc21 [Compound 55, 1-[(N1-Piperidinocarbothioyldiphenylmethylamino)-4-yl]-3-(3-aminopropyl)-1,3-dihydrobenzimidazol-2-one Monohydrochloride] | 4.64 | 6.50 | 82% | – | – | – | – | – |
| 1-[(N1-Piperidinocarbothioyl-(1-L-carboxymethyl-2-phenylamino)-4-yl]-3-(3-aminopropyl)-1,3-dihydrobenzimidazol-2-one Hydrochloride [Compound 57] | – | 4.77 | – | 0% @ 30 | 20% | – | – | – |
| CCN(CC)CCn1c(=O)n(C2CCN(C(=S)NC(Cc3ccccc3)C(=O)OC)CC2)c2ccccc21 [Compound 42, 1-(N1-Piperidinocarbothioyl-(2-phenyl-1-L-carboxymethyl)amino-4-yl)-3-(2-diethyaminoethyl)-1,3-dihydrobenzimidazol-2-one] | – | – | 10% | – | – | 0% | 0% | – |

The remaining molecules from weak to strong by pIC50 (human V1b receptor), led by results:

| pIC50 (human V2 receptor) | pIC50 (human V1b receptor) | inhibition at 10 µM (NPY2 receptors) | Cell-Based Functional activity V2 % Inh. @ 30 (human V2 receptor; 30 μM compound) | NPY-2@10, % Inh (NPY2 receptors) | inhibition at 10 µM (human V2 receptor; HEK293, 10 μM compound, read-out: Cell-Based Functional activity V2 % Inh. @ 10) | inhibition at 30 µM (human V1b receptor; HEK293, 30 μM compound, read-out: Cell-Based Functional activity V1b % Inh. @ 30) | inhibition at 30 µM (human V2 receptor; HEK293, 30 μM compound, read-out: Cell-Based Functional activity V2 % Inh. @ 30) | Molecule |
| --- | --- | --- | --- | --- | --- | --- | --- | --- |
| 6.21 | 5.00 | 74% | – | – | – | – | – | CCN(CC)CCn1c(=O)n(C2CCN(C(=S)NC(c3ccccc3)c3ccccc3)CC2)c2ccccc21 [Compound 35, 1-(N1-Piperidinocarbothioyldiphenylmethylamino-4-yl)-3-(2-diethyaminoethyl)-1,3-dihydrobenzimidazol-2-one] |
| – | 5.18 | 90% | – | – | – | – | 0% | N=C(N)NCCCn1c(=O)n(C2CCN(C(=S)NC(c3ccccc3)c3ccccc3)CC2)c2ccccc21 [Compound 59, 1-[(N1-Piperidinocarbothioyldiphenylmethylamino)-4-yl]-3-(3-guanidinopropyl)-1,3-dihydrobenzimidazol-2-one] |
